Assays:
Test in all cases: kinase profiling, radioactive filter binding assay
Type in all cases: biochemical
[1] = biological target: SYK (Homo sapiens, UniProt P43405); conditions: 0.1 µM compound, assay duplicates; read-out: residual activity of SYK, mean percentage activity
Procedure: (§1) The used method was a radioactive filter binding assay using ^33P ATP, for details see references. The substances were dissolved in DMSO at tested concentration of 0.1 µM. The mean percentage residual kinase activity and standard deviations of assay duplicates were determined. Analyses were performed by the International Center for Kinase Profiling at the University of Dundee, UK.

[2] = biological target: EPH A2 (Homo sapiens, UniProt P29317); conditions: 0.1 µM compound, assay duplicates; read-out: residual activity of EPH A2, mean percentage activity
Procedure: as §1

[3] = biological target: MAPKAP-K2 (Homo sapiens, UniProt P49137); conditions: 0.1 µM compound, assay duplicates; read-out: residual activity of MAPKAP-K2, mean percentage activity
Chain of MAPKAP-K2 (P49137 whole entry): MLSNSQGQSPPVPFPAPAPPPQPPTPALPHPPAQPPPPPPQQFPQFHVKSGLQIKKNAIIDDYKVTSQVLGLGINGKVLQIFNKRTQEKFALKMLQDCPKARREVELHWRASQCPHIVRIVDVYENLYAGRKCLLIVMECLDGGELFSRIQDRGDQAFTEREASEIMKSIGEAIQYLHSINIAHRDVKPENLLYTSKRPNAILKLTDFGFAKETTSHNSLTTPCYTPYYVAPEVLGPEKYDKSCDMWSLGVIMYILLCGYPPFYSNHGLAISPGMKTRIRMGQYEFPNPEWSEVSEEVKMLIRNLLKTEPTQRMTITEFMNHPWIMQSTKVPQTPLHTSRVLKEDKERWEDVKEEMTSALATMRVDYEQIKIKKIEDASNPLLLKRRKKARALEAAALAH
Procedure: as §1

[4] = biological target: SRPK1 (Homo sapiens, UniProt Q96SB4); conditions: 0.1 µM compound, assay duplicates; read-out: residual activity of SRPK1, mean percentage activity
Chain of SRPK1 (Q96SB4 whole entry): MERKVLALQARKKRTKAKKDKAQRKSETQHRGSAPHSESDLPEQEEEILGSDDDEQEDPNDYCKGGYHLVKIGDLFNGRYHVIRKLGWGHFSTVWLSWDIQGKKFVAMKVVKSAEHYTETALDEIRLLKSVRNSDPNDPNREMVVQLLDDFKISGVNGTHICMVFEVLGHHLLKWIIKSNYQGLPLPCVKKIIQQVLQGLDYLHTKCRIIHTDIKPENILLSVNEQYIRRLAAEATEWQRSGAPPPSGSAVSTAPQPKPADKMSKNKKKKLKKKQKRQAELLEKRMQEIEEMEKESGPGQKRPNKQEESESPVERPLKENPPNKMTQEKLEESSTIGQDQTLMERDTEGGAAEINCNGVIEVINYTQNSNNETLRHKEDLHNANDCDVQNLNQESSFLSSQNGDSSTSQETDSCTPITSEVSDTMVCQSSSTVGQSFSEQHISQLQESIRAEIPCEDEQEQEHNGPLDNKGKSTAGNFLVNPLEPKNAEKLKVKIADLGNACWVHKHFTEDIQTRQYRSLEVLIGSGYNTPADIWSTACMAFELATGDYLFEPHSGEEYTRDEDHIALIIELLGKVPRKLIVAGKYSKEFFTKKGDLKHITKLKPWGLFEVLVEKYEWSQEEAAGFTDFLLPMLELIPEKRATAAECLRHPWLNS
Procedure: as §1

[5] = biological target: Lck (Homo sapiens, UniProt P06239); conditions: 0.1 µM compound, assay duplicates; read-out: residual activity of Lck, mean percentage activity
Chain of Lck (P06239 whole entry): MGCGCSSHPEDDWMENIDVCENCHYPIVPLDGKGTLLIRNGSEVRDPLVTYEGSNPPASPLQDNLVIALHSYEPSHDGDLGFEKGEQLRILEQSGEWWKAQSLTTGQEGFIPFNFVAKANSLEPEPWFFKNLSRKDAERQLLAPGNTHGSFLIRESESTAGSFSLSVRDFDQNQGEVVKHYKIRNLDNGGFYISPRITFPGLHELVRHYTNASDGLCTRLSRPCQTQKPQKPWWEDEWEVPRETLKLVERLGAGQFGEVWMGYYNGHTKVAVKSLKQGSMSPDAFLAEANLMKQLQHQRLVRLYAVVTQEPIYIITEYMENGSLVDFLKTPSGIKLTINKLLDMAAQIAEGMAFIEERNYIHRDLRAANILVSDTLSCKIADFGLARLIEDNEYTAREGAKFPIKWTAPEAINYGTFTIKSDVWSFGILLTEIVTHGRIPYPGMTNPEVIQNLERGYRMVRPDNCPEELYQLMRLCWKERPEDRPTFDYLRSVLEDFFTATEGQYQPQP
Procedure: as §1

[6] = biological target: DYRK3 (Homo sapiens, UniProt O43781); conditions: 0.1 µM compound, assay duplicates; read-out: residual activity of DYRK3, mean percentage activity
Procedure: as §1

[7] = biological target: IKKb (Homo sapiens, UniProt O14920); conditions: 0.1 µM compound, assay duplicates; read-out: residual activity of IKKb, mean percentage activity
Procedure: as §1

[8] = biological target: TBK1 (DU12569) (Homo sapiens, UniProt Q9UHD2); conditions: 0.1 µM compound, assay duplicates; read-out: residual activity of TBK1 (DU12569), mean percentage activity
Chain of TBK1 (DU12569) (Q9UHD2 whole entry): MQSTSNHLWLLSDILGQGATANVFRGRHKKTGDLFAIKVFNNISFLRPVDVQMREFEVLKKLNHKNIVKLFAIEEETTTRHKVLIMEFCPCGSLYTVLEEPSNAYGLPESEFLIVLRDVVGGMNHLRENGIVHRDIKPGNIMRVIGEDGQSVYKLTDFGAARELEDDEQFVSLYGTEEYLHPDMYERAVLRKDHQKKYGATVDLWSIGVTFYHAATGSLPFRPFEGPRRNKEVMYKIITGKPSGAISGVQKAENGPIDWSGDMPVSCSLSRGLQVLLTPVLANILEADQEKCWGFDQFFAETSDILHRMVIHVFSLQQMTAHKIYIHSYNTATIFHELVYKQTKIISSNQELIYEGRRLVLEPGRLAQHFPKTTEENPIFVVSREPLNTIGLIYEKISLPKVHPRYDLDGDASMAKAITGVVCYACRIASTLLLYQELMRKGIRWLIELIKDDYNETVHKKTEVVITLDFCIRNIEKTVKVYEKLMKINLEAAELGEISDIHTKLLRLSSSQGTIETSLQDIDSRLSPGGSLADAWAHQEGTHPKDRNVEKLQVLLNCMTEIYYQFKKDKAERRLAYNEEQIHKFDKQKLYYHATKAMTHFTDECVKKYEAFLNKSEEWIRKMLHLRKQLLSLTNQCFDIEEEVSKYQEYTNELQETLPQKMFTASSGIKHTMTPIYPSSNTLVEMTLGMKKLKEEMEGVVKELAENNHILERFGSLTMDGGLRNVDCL
Procedure: as §1

[9] = biological target: CHK1 (Homo sapiens, UniProt O14757); conditions: 0.1 µM compound, assay duplicates; read-out: residual activity of CHK1, mean percentage activity
Procedure: as §1

[10] = biological target: PIM1 (Homo sapiens, UniProt P11309); conditions: 0.1 µM compound, assay duplicates; read-out: residual activity of PIM1, mean percentage activity
Chain of PIM1 (P11309 whole entry): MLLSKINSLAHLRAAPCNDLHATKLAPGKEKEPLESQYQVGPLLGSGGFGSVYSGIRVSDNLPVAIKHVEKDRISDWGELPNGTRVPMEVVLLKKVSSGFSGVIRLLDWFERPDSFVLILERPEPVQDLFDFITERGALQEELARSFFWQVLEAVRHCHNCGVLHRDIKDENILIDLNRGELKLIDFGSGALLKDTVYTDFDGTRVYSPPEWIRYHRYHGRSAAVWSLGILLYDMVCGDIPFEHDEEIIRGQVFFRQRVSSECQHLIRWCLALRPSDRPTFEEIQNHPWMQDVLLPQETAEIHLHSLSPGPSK
Procedure: as §1

[11] = biological target: MKK1 (Homo sapiens, UniProt Q02750); conditions: 0.1 µM compound, assay duplicates; read-out: residual activity of MKK1, mean percentage activity
Procedure: as §1

[12] = biological target: ROCK 2 (Homo sapiens, UniProt O75116); conditions: 0.1 µM compound, assay duplicates; read-out: residual activity of ROCK 2, mean percentage activity
Chain of ROCK 2 (O75116 whole entry): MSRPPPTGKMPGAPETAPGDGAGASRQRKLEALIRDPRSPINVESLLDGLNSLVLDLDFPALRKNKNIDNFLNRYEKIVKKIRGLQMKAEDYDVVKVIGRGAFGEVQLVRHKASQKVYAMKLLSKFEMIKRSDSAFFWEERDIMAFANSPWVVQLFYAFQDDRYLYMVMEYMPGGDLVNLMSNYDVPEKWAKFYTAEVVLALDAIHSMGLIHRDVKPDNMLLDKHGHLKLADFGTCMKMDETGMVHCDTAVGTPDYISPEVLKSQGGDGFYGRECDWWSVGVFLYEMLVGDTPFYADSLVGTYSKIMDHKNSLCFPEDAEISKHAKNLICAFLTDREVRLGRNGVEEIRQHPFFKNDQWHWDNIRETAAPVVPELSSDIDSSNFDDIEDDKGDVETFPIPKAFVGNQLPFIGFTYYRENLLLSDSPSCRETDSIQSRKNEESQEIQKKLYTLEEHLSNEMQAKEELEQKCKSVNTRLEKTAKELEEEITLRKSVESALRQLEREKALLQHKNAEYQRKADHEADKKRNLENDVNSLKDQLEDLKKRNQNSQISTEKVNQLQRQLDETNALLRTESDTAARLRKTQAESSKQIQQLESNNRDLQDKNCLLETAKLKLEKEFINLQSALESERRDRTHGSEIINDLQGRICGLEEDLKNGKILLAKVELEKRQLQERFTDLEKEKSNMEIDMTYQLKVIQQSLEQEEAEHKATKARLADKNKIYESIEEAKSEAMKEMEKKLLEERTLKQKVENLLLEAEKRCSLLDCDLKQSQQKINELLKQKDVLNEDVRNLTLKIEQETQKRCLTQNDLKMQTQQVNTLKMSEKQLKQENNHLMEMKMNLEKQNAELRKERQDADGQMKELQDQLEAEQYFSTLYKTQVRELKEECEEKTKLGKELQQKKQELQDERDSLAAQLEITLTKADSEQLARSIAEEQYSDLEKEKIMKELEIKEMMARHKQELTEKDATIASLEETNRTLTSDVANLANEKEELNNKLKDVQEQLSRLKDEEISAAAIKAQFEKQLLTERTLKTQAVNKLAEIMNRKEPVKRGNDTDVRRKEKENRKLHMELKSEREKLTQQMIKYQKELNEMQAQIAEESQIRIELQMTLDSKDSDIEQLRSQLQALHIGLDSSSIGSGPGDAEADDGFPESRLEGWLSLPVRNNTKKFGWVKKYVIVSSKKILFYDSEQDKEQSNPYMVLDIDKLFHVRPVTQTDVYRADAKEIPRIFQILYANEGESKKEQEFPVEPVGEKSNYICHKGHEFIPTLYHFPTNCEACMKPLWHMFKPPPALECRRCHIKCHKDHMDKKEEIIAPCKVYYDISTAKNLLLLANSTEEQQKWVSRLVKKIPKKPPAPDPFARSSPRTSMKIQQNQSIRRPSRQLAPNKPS
Procedure: as §1

[13] = biological target: DYRK1A (Homo sapiens, UniProt Q13627); conditions: 0.1 µM compound, assay duplicates; read-out: residual activity of DYRK1A, mean percentage activity
Procedure: as §1

[14] = biological target: EPH-B3 (Homo sapiens, UniProt P54753); conditions: 0.1 µM compound, assay duplicates; read-out: residual activity of EPH-B3, mean percentage activity
Procedure: as §1

[15] = biological target: MST2 (Homo sapiens, UniProt Q13188); conditions: 0.1 µM compound, assay duplicates; read-out: residual activity of MST2, mean percentage activity
Procedure: as §1

[16] = biological target: IKKe (Homo sapiens, UniProt Q14164); conditions: 0.1 µM compound, assay duplicates; read-out: residual activity of IKKe, mean percentage activity
Procedure: as §1

[17] = biological target: NEK6 (Homo sapiens, UniProt Q9HC98); conditions: 0.1 µM compound, assay duplicates; read-out: residual activity of NEK6, mean percentage activity
Procedure: as §1

[18] = biological target: MST4 (Homo sapiens, UniProt Q9P289); conditions: 0.1 µM compound, assay duplicates; read-out: residual activity of MST4, mean percentage activity
Chain of MST4 (Q9P289 whole entry): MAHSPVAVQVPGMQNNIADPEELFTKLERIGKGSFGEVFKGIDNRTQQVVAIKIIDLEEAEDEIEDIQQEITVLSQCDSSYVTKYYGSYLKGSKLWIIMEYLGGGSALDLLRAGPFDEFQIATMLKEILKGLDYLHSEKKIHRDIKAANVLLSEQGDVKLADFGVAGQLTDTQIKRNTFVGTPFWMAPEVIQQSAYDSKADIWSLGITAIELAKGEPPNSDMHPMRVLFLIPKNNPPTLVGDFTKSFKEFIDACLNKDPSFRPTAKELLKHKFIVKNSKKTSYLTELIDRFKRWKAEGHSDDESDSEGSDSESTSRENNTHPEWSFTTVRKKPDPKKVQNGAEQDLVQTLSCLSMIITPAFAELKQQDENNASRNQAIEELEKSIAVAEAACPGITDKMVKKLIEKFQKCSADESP
Procedure: as §1

[19] = biological target: PLK1 (Homo sapiens, UniProt P53350); conditions: 0.1 µM compound, assay duplicates; read-out: residual activity of PLK1, mean percentage activity
Procedure: as §1

[20] = test system: AMPK; conditions: 0.1 µM compound, assay duplicates
Procedure: as §1

[21] = biological target: MNK2 (Homo sapiens, UniProt Q9HBH9); conditions: 0.1 µM compound, assay duplicates; read-out: residual activity of MNK2, mean percentage activity
Procedure: as §1

[22] = biological target: PIM3 (Homo sapiens, UniProt Q86V86); conditions: 0.1 µM compound, assay duplicates; read-out: residual activity of PIM3, mean percentage activity
Procedure: as §1

[23] = biological target: CK1 (Homo sapiens, UniProt P48730); conditions: 0.1 µM compound, assay duplicates; read-out: residual activity of CK1, mean percentage activity
Procedure: as §1

[24] = biological target: BTK (Homo sapiens, UniProt Q06187); conditions: 0.1 µM compound, assay duplicates; read-out: residual activity of BTK, mean percentage activity
Procedure: as §1

[25] = biological target: PKA (Homo sapiens, UniProt P17612); conditions: 0.1 µM compound, assay duplicates; read-out: residual activity of PKA, mean percentage activity
Procedure: as §1

[26] = biological target: FGF-R1 (Homo sapiens, UniProt P11362); conditions: 0.1 µM compound, assay duplicates; read-out: residual activity of FGF-R1, mean percentage activity
Procedure: as §1

Structure (SMILES) | remaining activity at 0.1 µM [1] [%] | remaining activity at 0.1 µM [2] [%] | remaining activity at 0.1 µM [3] [%] | remaining activity at 0.1 µM [4] [%] | remaining activity at 0.1 µM [5] [%] | remaining activity at 0.1 µM [6] [%] | remaining activity at 0.1 µM [7] [%] | remaining activity at 0.1 µM [8] [%] | remaining activity at 0.1 µM [9] [%] | remaining activity at 0.1 µM [10] [%] | remaining activity at 0.1 µM [11] [%] | remaining activity at 0.1 µM [12] [%] | remaining activity at 0.1 µM [13] [%] | remaining activity at 0.1 µM [14] [%] | remaining activity at 0.1 µM [15] [%] | remaining activity at 0.1 µM [16] [%] | remaining activity at 0.1 µM [17] [%] | remaining activity at 0.1 µM [18] [%] | remaining activity at 0.1 µM [19] [%] | residual activity of AMPK, mean percentage activity [20] [%] | further results
COc1cc2c3c(c4c5ccccc5[nH]c4c2c(OC)c1OC)C(=O)NC3=O [Compound 3, 5,6,7-Trimethoxybenzo[a]pyrrolo[3,4-c]carbazole-1,3(2H,8H)-dione] | 86 | 109 | 95 | 83 | 91 | 46 | 113 | 73 | 34 | 5 | 67 | 88 | 26 | 133 | 24 | 63 | 104 | 69 | 49 | 75 | remaining activity at 0.1 µM [21]: 81%; remaining activity at 0.1 µM [22]: 4%; remaining activity at 0.1 µM [23]: 78%; remaining activity at 0.1 µM [24]: 90%; remaining activity at 0.1 µM [25]: 90%; remaining activity at 0.1 µM [26]: 92%
COc1cc(C2=C(c3c[nH]c4ccccc34)C(=O)NC2=O)cc(OC)c1OC [Compound 1, 3-(1H-Indol-3-yl)-4-(3,4,5-trimethoxyphenyl)-1H-pyrrole-2,5-dione] | 85 | 104 | 94 | 85 | 91 | 85 | 102 | 88 | 72 | 14 | 54 | 97 | 73 | 104 | 53 | 80 | 96 | 94 | 79 | 78 | remaining activity at 0.1 µM [21]: 90%; remaining activity at 0.1 µM [22]: 5%; remaining activity at 0.1 µM [23]: 86%; remaining activity at 0.1 µM [24]: 93%; remaining activity at 0.1 µM [25]: 93%; remaining activity at 0.1 µM [26]: 69%

Reference: publication PMC6274539, “Photoactivatable Caged Prodrugs of VEGFR-2 Kinase Inhibitors” (Molecules, 2016)
